Where two headings read alike, the source gives them in different places.
How the values were obtained:
[1] = Phase I safety/tolerability (adverse events, DLT, MTD) in patients with advanced solid tumors
Protocol: The study was divided into two parts: dose escalation and dose expansion. Dose escalation used a traditional 3 + 3 dose-escalation design. […] The first patient in each dose-escalation cohort was evaluated for dose-limiting toxicities (DLTs) in cycle 1, day 4. If no DLTs were reported by the investigator, the remaining patients in the cohort were enrolled. […] The protocol allowed that and subsequent doses to be expanded to enroll an additional three patients who were known to have tumors tested positive for ALK abnormalities once safety was established in the first three subjects for that cohort.

[2] = Electrocardiogram QTcF in phase I patients; conditions: 325-mg dose
Protocol: The safety and tolerability of […] were assessed by adverse events (AEs) (graded based on NCI-CTCAE v4.03), laboratory tests, vital signs, electrocardiograms, and clinical observations.

[3] = Plasma pharmacokinetics in phase I patients; assay type: in vivo, human; conditions: for AUC: read-out: AUC24
Protocol: On day 1, the following PK parameters were assessed for […]: area under the plasma concentration-time curve (AUC24), AUClast, maximum concentration observed (Cmax), and time of maximum concentration observed (tmax). On day 28, [NT], Cmax, Ctrough, tmax, CL/F, Vz/F, and t1⁄2, calculated based on the ratio of accumulation for AUC (day 28 AUCtau/day 1 AUC24) (Rac [AUC]), were assessed. Cumulative effects on steady-state […] plasma levels were assessed by comparing Ctrough on day 28 divided by Ctrough on days 8, 15, and 22. For continuous variables, descriptive statistics included the number of patients, mean (standard deviation), median, and range. For antitumor assessments, the number and percentage (95 % CI) of patients with CR, PR, SD, and PD were summarized. The overall best tumor response was also summarized. For the objective response rates, the exact confidence interval of response was calculated only for the dose-expansion cohort using the Clopper-Pearson method. For continuous PK parameters, the coefficient of variation was calculated. For Cmax and AUC, geometric mean was calculated. All data processing and analyses were performed using SAS® Version 9.1.3 or higher. The safety analysis set was defined as patients who received at least one […] dose. The PK analysis set was defined as patients who received at least one dose of […] and provided the values of drug concentrations for at least one time point.

[4] = system: crizotinib-resistant ALK-positive tumors; test: Antitumor response by RECIST v1.1 in the dose-expansion cohort; assay type: in vivo, human
From the text: Solid tumor assessment was based on Response Evaluation Criteria in Solid Tumors (RECIST) v1.1. For target lesions, complete response (CR) was defined as disappearance of all target lesions and pathologic lymph nodes with a reduction in short axis to <10 mm. Partial response (PR) was defined as a ≥30 % decrease in the sum of diameters of the target lesions, taking as reference the baseline sum of diameters. Progressive disease (PD) was defined as a ≥20 % increase in the sum of diameters from the smallest sum on the study and the sum of diameters to be ≥5 mm from the smallest sum on study. Stable disease (SD) was defined as neither PR nor PD.
For patients in the dose-expansion cohort with evaluable tumor diameter, the best tumor reduction was calculated as the decrease from baseline in the sum of the target lesions.
For continuous variables, descriptive statistics included the number of patients, mean (standard deviation), median, and range. For antitumor assessments, the number and percentage (95 % CI) of patients with CR, PR, SD, and PD were summarized. The overall best tumor response was also summarized. For the objective response rates, the exact confidence interval of response was calculated only for the dose-expansion cohort using the Clopper–Pearson method. For continuous PK parameters, the coefficient of variation was calculated. For Cmax and AUC, geometric mean was calculated. All data processing and analyses were performed using SAS® Version 9.1.3 or higher.

[5] = system: panel of 86 tyrosine kinases; conditions: 1 μmol/L; cited from earlier work
[6] = target: wild-type ALK kinase domain; conditions: cited from earlier work
L1196M ALK kinase domain = conditions: cited from earlier work
[7] = system: wild-type ALK and EML4-ALK L1196M xenograft tumors; conditions: mice, subcutaneous and intracranial xenografts, compared with crizotinib; cited from earlier work
[8] = human, plasma, oral, 25 mg, cycle 1, day 1, 25 mg once daily, dose-escalation cohort, n = 4, mean (standard deviation)
[9] = human, plasma, oral, 25 mg, cycle 1, day 28, 25 mg once daily, dose-escalation cohort, n = 3, mean (standard deviation)
[10] = human, plasma, oral, 50 mg, cycle 1, day 1, 50 mg once daily, dose-escalation cohort, n = 3, mean (standard deviation)
[11] = human, plasma, oral, 50 mg, cycle 1, day 28, 50 mg once daily, dose-escalation cohort, n = 3, mean (standard deviation)
[12] = human, plasma, oral, 75 mg, cycle 1, day 1, 75 mg once daily, dose-escalation cohort, n = 3, mean (standard deviation)
[13] = human, plasma, oral, 75 mg, cycle 1, day 28, 75 mg once daily, dose-escalation cohort, n = 3, mean (standard deviation)
[14] = human, plasma, oral, 125 mg, cycle 1, day 1, 125 mg once daily, dose-escalation cohort, n = 4, mean (standard deviation)
[15] = human, plasma, oral, 125 mg, cycle 1, day 28, 125 mg once daily, dose-escalation cohort, n = 1
[16] = human, plasma, oral, 200 mg once daily, cycle 1, day 28, 200 mg once daily, dose-escalation cohort, n = 3, mean (standard deviation)
[17] = human, plasma, oral, 200 mg, cycle 1, day 1, 200 mg once daily, dose-escalation cohort, n = 4, mean (standard deviation)
[18] = human, plasma, oral, 325 mg once daily, cycle 1, day 28, 325 mg once daily, dose-escalation cohort, n = 3, mean (standard deviation)
[19] = human, plasma, oral, 325 mg, cycle 1, day 1, 325 mg once daily, dose-escalation cohort, n = 3, mean (standard deviation)
[20] = human, plasma, oral, 800 mg, cycle 1, day 1, 800 mg once daily, dose-escalation cohort, n = 3, mean (standard deviation)
[21] = human, plasma, oral, 800 mg, cycle 1, day 28, 800 mg once daily, dose-escalation cohort, n = 1
[22] = expansion cohort, 525 mg, n = 16

In the case of `COc1cc(N2CCC(N3CCN(C)CC3)CC2)ccc1Nc1ncnc(Nc2ccccc2S(=O)(=O)C(C)C)n1` [ASP3026], the deaths on study ([1]; all due to PD, not related to the study drug) is reported as “three”, the “changes in clinical laboratory parameters or vital signs over time” value ([1]; human, in vivo) is reported as “no meaningful changes” and the “treatment-related adverse event: fatigue” value ([1]; human, in vivo) is reported as 35%. The “treatment-related adverse event: nausea” value ([1]; human, in vivo) was 38%, the “treatment-related adverse event: vomiting” value ([1]; human, in vivo) was 35% and the dose-limiting toxicities observed ([1]; human, in vivo, 28 days) was “Grade 3 rash and elevated transaminase concentrations”. The “QTcF, mean (standard deviation) maximal increase” value [2] was 47.0 (10.7) ms, the “slope estimate (95 % CI) of dose-normalized AUClast versus dose” value ([3]; human, in vivo) was 0.090 (−0.097, 0.277) and the “slope estimate (95 % CI) of dose-normalized Cmax versus dose” value ([3]; human, in vivo) was 0.170 (−0.018, 0.358). The “t ½” value ([3]; human, in vivo) was 24.9 (12.7) h, the “time to steady-state plasma concentrations” value ([3]; human, in vivo) was at most 8 days and the half-life ([3]; human, in vivo, accumulation half-life, mean (standard deviation)) was 25 h. For the same compound, the half-life ([3]; human, in vivo, half-life, range) was 22 to 85 h, the half-life ([3]; human, in vivo, median half-life) was 35 h and the Tmax ([3]; human, in vivo, po, tmax) was about 3 h. It also gave a Tmax ([3]; human, in vivo, t max) of 4 h, a half-life ([3]; human, in vivo, t ½) of 27.3 h and a Cmax [3, 8] of 32 ng/mL. The AUC [3, 8] was 378 ng·h/mL, the Tmax ([3]; human, plasma, oral, 25 mg, cycle 1, day 1, 25 mg once daily, dose-escalation cohort, n = 4, median (range), read-out: t max) was 3 h and the Cmax [3, 9] was 68.4 ng/mL. For the same compound, the half-life ([3]; human, plasma, oral, 25 mg, cycle 1, day 28, 25 mg once daily, dose-escalation cohort, n = 3, mean (standard deviation), calculated from accumulation ratio, read-out: t ½ (converted)) was 36.6 h, the AUC [3, 9] was 1040 ng·h/mL and the Tmax ([3]; human, plasma, oral, 25 mg, cycle 1, day 28, 25 mg once daily, dose-escalation cohort, n = 3, median (range), read-out: t max) was 3 h. The Cmax [3, 10] was 99.7 ng/mL, the AUC [3, 10] was 846 ng·h/mL and the Tmax ([3]; human, plasma, oral, 50 mg, cycle 1, day 1, 50 mg once daily, dose-escalation cohort, n = 3, median (range), read-out: t max) was 3 h. It also gave a Cmax [3, 11] of 143 ng/mL, a half-life ([3]; human, plasma, oral, 50 mg, cycle 1, day 28, 50 mg once daily, dose-escalation cohort, n = 3, mean (standard deviation), calculated from accumulation ratio, read-out: t ½ (converted)) of 35.2 h and an AUC [3, 11] of 2110 ng·h/mL. It also gave a Tmax ([3]; human, plasma, oral, 50 mg, cycle 1, day 28, 50 mg once daily, dose-escalation cohort, n = 3, median (range), read-out: t max) of 3 h, a Cmax [3, 12] of 87.6 ng/mL and an AUC [3, 12] of 1160 ng·h/mL. The Tmax ([3]; human, plasma, oral, 75 mg, cycle 1, day 1, 75 mg once daily, dose-escalation cohort, n = 3, median (range), read-out: t max) was 8.2 h, the Cmax [3, 13] was 352 ng/mL and the half-life ([3]; human, plasma, oral, 75 mg, cycle 1, day 28, 75 mg once daily, dose-escalation cohort, n = 3, mean (standard deviation), calculated from accumulation ratio, read-out: t ½ (converted)) was 84.7 h. The AUC [3, 13] was 5630 ng·h/mL, the Tmax ([3]; human, plasma, oral, 75 mg, cycle 1, day 28, 75 mg once daily, dose-escalation cohort, n = 3, median (range), read-out: t max) was 3 h and the Cmax [3, 14] was 262 ng/mL. For the same compound, the AUC [3, 14] was 3000 ng·h/mL, the Tmax ([3]; human, plasma, oral, 125 mg, cycle 1, day 1, 125 mg once daily, dose-escalation cohort, n = 4, median (range), read-out: t max) was 5 h and the Cmax [3, 15] was 668 ng/mL. For the same compound, the half-life ([3]; human, plasma, oral, 125 mg, cycle 1, day 28, 125 mg once daily, dose-escalation cohort, n = 1, calculated from accumulation ratio, read-out: t ½ (converted)) was 36.7 h, the AUC [3, 15] was 8970 ng·h/mL and the Tmax ([3]; human, plasma, oral, 125 mg, cycle 1, day 28, 125 mg once daily, dose-escalation cohort, n = 1, read-out: t max) was 2.1 h. It also gave a Cmax [3, 16] of 682 ng/mL, a half-life ([3]; human, plasma, oral, 200 mg once daily, cycle 1, day 28, 200 mg once daily, dose-escalation cohort, n = 3, mean (standard deviation), calculated from accumulation ratio, read-out: t ½ (converted)) of 21.9 h and an AUC [3, 16] of 7620 ng·h/mL. For the same compound, the Tmax ([3]; human, plasma, oral, 200 mg once daily, cycle 1, day 28, 200 mg once daily, dose-escalation cohort, n = 3, median (range), read-out: t max) was 3 h, the Cmax [3, 17] was 490 ng/mL and the AUC [3, 17] was 4580 ng·h/mL. It also gave a Tmax ([3]; human, plasma, oral, 200 mg, cycle 1, day 1, 200 mg once daily, dose-escalation cohort, n = 4, median (range), read-out: t max) of 2.5 h, a Cmax [3, 18] of 1160 ng/mL and a half-life ([3]; human, plasma, oral, 325 mg once daily, cycle 1, day 28, 325 mg once daily, dose-escalation cohort, n = 3, mean (standard deviation), calculated from accumulation ratio, read-out: t ½ (converted)) of 26.3 h. For the same compound, the AUC [3, 18] was 18800 ng·h/mL, the Tmax ([3]; human, plasma, oral, 325 mg once daily, cycle 1, day 28, 325 mg once daily, dose-escalation cohort, n = 3, median (range), read-out: t max) was 4 h and the Cmax [3, 19] was 586 ng/mL. For the same compound, the AUC [3, 19] was 7950 ng·h/mL, the Tmax ([3]; human, plasma, oral, 325 mg, cycle 1, day 1, 325 mg once daily, dose-escalation cohort, n = 3, median (range), read-out: t max) was 3 h and the Cmax [3, 20] was 1630 ng/mL. The AUC [3, 20] was 21800 ng·h/mL, the Tmax ([3]; human, plasma, oral, 800 mg, cycle 1, day 1, 800 mg once daily, dose-escalation cohort, n = 3, median (range), read-out: t max) was 3 h and the Cmax [3, 21] was 4850 ng/mL. The half-life ([3]; human, plasma, oral, 800 mg, cycle 1, day 28, 800 mg once daily, dose-escalation cohort, n = 1, calculated from accumulation ratio, read-out: t ½ (converted)) was 37.9 h, the AUC [3, 21] was 78100 ng·h/mL and the Tmax ([3]; human, plasma, oral, 800 mg, cycle 1, day 28, 800 mg once daily, dose-escalation cohort, n = 1, read-out: t max) was 4 h. For the same compound, the “linearity and dose proportionality of exposure (Cmax and AUClast)” value ([3]; multiple dosing (day 28), 25- to 800-mg dose range) was “both linear and dose-proportional exposure”, the “best overall response: stable disease rate” value ([4]; 525 mg, 16 crizotinib-resistant ALK-positive patients) was 44% and the “best overall response: partial response rate” value ([4]; 525 mg, 16 crizotinib-resistant ALK-positive patients (15 NSCLC, 1 neuroblastoma)) was 50%. The “objective (overall) response rate (CR + PR)” value ([4]; 525 mg, 16 crizotinib-resistant ALK-positive patients, 95 % CI 25–75 %) was 50%, the stable disease rate ([4]; 525 mg, restricted to ALK-positive NSCLC patients, 6/15) was 40% and the partial response rate ([4]; 525 mg, restricted to ALK-positive NSCLC patients, 8/15) was 53%. The median progression-free survival ([4]; ALK-positive patients, 95 % CI 4–9) was 6 months, the “duration of response, range” value ([4]; dose-expansion cohort, 525 mg) was 27 to 338 days and the “Best overall response: complete response” value [4, 22] was 0 n (%). The “Best overall response: partial response” value [4, 22] was 8 (50) n (%), the “Best overall response: progressive disease” value [4, 22] was 0 n (%) and the “Best overall response: stable disease” value [4, 22] was 7 (44) n (%). The “Best overall response: unable to evaluate” value [4, 22] was 1 (6) n (%), the “Objective response (complete response + partial response)” value ([4]; expansion cohort, 525 mg, n = 16, 95 % CI 25–75 %) was 8 (50) n (%) and the “number of tyrosine kinases inhibited by more than 50 %” value [5] was 11. For the same compound, the IC50 [6] was 10 nM, the IC50 (L1196M ALK kinase domain) was 32 nM and the “antitumor activity in xenograft tumors” value [7] was “potent antitumor activity”.
